Values after ≈ are worked out from the molar mass of the structure shown. Values joined by “and” are separate entries in the source; they are usually repeats but may differ in a detail not shown here. Identical values can stand only once. Like-named read-outs stand apart in the source and are kept apart here.
Legend:
C. glabrata strains [1] = experiment: MIC testing (CLSI M27-A3); format: cell-based; set-up: MIC: unit not given beside the values; settings: for MIC Range: C. glabrata strains, in µg/mL; for MIC50 / MIC90: C. glabrata; for MIC50: inhibits 50% of strains; for MIC90: inhibits 90% of strains
C. glabrata strains [2] = experiment: MFC determination; format: cell-based; set-up: MFC: unit not given beside the values; settings: for MFC50 / MFC90: C. glabrata; for MFC50: kills 50% of strains; for MFC90: kills 90% of strains
C. krusei strains = experiment: MFC determination; format: cell-based; settings: for MFC50 / MFC90: C. krusei; for MFC50: kills 50% of strains; for MFC90: kills 90% of strains
C. tropicalis = experiment: MIC testing (CLSI M27-A3); format: cell-based; settings: for MIC Range: C. tropicalis strains, in µg/mL; for MIC50 / MIC90: C. tropicalis; for MIC50: inhibits 50% of strains; for MIC90: inhibits 90% of strains
all Candida strains [3] = experiment: MIC testing (CLSI M27-A3), summary; format: cell-based; settings: for MIC Range: in µg/mL; for MIC50: inhibits 50% of strains; for MIC90: inhibits 90% of strains
all Candida strains [4] = experiment: MFC determination, summary; format: cell-based; settings: for MFC50: kills 50% of strains; for MFC90: kills 90% of strains
Cr. neoformans strains = experiment: MIC testing (CLSI M27-A3, YNB, 72 h); format: cell-based, Cryptococcus neoformans; settings: for MIC Range: Cr. neoformans strains, 72 h, in µg/mL; for MIC50 / MIC90: Cr. neoformans; for MIC50: inhibits 50% of strains; for MIC90: inhibits 90% of strains
[5] = test system: individual Aspergillus spp. (Table 13, species not given); experiment: MFC determination, Table 13; format: cell-based; settings: Aspergillus sp. of Table 13; for MFC50: kills 50% of strains; for MFC90: kills 90% of strains
[6] = test system: individual Aspergillus spp. (Table 14, species not named); experiment: MIC testing (CLSI M38-A2), Table 14; format: cell-based; settings: Aspergillus sp. of Table 14, caspofungin read as MEC; for MIC Range: in µg/mL; for MIC50: inhibits 50% of strains; for MIC90: inhibits 90% of strains
[7] = test system: individual Aspergillus spp. (Table 14, species not named); experiment: MFC determination, Table 14; format: cell-based; settings: Aspergillus sp. of Table 14; for MFC50: kills 50% of strains; for MFC90: kills 90% of strains
Fusarium strains = experiment: MIC testing (CLSI M38-A2), Table 17; format: cell-based, Fusarium spp.; settings: Fusarium strains (Table 17); for MIC Range: in µg/mL; for MIC50: inhibits 50% of strains; for MIC90: inhibits 90% of strains
[8] = test system: Fusarium strains (Table 18); experiment: MFC determination, Table 18; format: cell-based, Fusarium spp.; settings: for MFC50: kills 50% of strains; for MFC90: kills 90% of strains
[9] = test system: Blastomyces dermatitidis, Coccidioides immitis, and Histoplasma capsulatum strains; format: cell-based; settings: dimorphic fungal isolates; in µg/mL
C. albicans SC5314 = experiment: In vitro activity (MIC) against the infecting strain, Example 18; format: cell-based, Candida albicans
Candida albicans SC5314 = experiment: Disseminated candidiasis in immunocompromised murine model (BALB/c mice): tissue fungal burden; format: in vivo; settings: Experiment I; 0.35 mg/kg i.v., 7 days
[10] = test system: Candida albicans ATCC 10231; experiment: MIC50 growth inhibition assay of compositions (OD600), Example 12; format: cell-based; settings: concentration giving 50% growth inhibition
Procedure: Efficacy of the compositions was determined using Minimum Inhibitory Concentration assays, and the concentration of active compound giving 50% growth inhibition of the indicator organism was reported (MIC50). The assay was performed in well plates with two (Müller-Hinton medium) or three parallel (M19-medium) cell cultures for each condition.
Cell Culture Medium: Müller-Hinton and M19 without NaCl.
Indicator Organism: Candida albicans ATCC 10231
Stock Solutions of the Active Compounds and Control: • Amphotericin B (USP): vacuum dried powder was dissolved in DMSO to 2.5 mg/mL giving a final concentration after inoculation of 2.5 μg/mL in the well with the highest concentration. • compound 1A (custom made): powder was dissolved in DMSO to 2.5 mg/mL giving a final concentration after inoculation of 2.5 μg/ml compound 1A in the well with the highest concentration. It is assumed that the batch is 70% pure. • Example 3 composition: the formulation was a suspension with 18 mg/mL nanoparticles. The suspension was diluted in a medium and C. albicans inoculum to a final concentration of 5 μg/mL of compound 1A and 130 μg/mL of […]. From this solution 10 dilutions were prepared giving 0.009 μg/ml compound 1A in the lowest concentration. • Empty poly(ethylbutyl cyanoacrylate) particles: empty poly(ethylbutyl cyanoacrylate) particles were used as a reference. The empty poly(ethylbutyl cyanoacrylate) was produced in the same manner as those in Examples 2 and 3, with the exception that they were prepared at pH 1, with vanillin concentration of 10% (w/w), and. The particles were diluted in the same manner as Example 3. The highest poly(ethylbutyl cyanoacrylate) concentration tested was 130 μg/mL.
Growth measurements were performed at OD600.

Paecilomyces strains = experiment: MFC determination; format: cell-based, Paecilomyces spp.; settings: Paecilomyces strains (5)
[11] = individual C. glabrata strain with elevated MICs to non-polyene comparators (Table 22), listed as Cas

CC[C@H](C)C[C@H](C)CCCCCCCCC(=O)N[C@H]1C[C@@H](O)[C@@H](NCCN)NC(=O)[C@@H]2[C@@H](O)CCN2C(=O)[C@H]([C@H](O)CCN)NC(=O)[C@H]([C@H](O)[C@@H](O)c2ccc(O)cc2)NC(=O)[C@@H]2C[C@@H](O)CN2C(=O)[C@H]([C@@H](C)O)NC1=O [Caspofungin, caspofungin]
MIC Range (C. glabrata strains [1]): 0.25-8
MIC50 (C. glabrata strains [1]): 0.5 µg/mL (≈ 0.457 µM)
MIC90 (C. glabrata strains [1]): 2 µg/mL (≈ 1.83 µM)
MIC (C. glabrata strains [1]; [11]): 2 (2×) and 1 and 4 and 8
MFC50 (C. glabrata strains [2]): 1 µg/mL (≈ 0.915 µM)
MFC90 (C. glabrata strains [2]): 32 µg/mL (≈ 29.3 µM)
MFC (C. glabrata strains [2]; [11]): 32 (3×) and 16 and >32
MFC50 (C. krusei strains): 2 µg/mL (≈ 1.83 µM)
MFC90 (C. krusei strains): 8 µg/mL (≈ 7.32 µM)
MFC (C. krusei strains; individual C. krusei strain with elevated MICs to non-polyene comparators (Table 22)): > 32 µg/mL
MIC Range (C. tropicalis): 0.06-2
MIC50 (C. tropicalis): 0.25 µg/mL (≈ 0.229 µM)
MIC90 (C. tropicalis): 0.5 µg/mL (≈ 0.457 µM)
MIC Range (all Candida strains [3]): 0.06-16
MIC50 (all Candida strains [3]): 0.5 µg/mL (≈ 0.457 µM)
MIC90 (all Candida strains [3]): 2 µg/mL (≈ 1.83 µM)
MFC50 (all Candida strains [4]): 16 µg/mL (≈ 14.6 µM)
MFC90 (all Candida strains [4]): > 32 µg/mL
MIC Range (Cr. neoformans strains): 1-16
MIC50 (Cr. neoformans strains): 16 µg/mL (≈ 14.6 µM)
MIC90 (Cr. neoformans strains): 16 µg/mL (≈ 14.6 µM)
MFC50 [5]: > 32 µg/mL
MFC90 [5]: > 32 µg/mL
MIC Range [6]: 0.125-2
MIC50 [6]: 0.125 µg/mL (≈ 0.114 µM)
MIC90 [6]: 0.25 µg/mL (≈ 0.229 µM)
MFC50 [7]: > 32 µg/mL
MFC90 [7]: > 32 µg/mL
MIC Range (Fusarium strains): 1-64
MIC50 (Fusarium strains): 32 µg/mL (≈ 29.3 µM)
MIC90 (Fusarium strains): 32 µg/mL (≈ 29.3 µM)
MFC Range [8]: > 32 µg/mL
MFC50 [8]: > 32 µg/mL
MFC90 [8]: > 32 µg/mL
MIC Range [9]: 0.03-0.5
MIC (C. albicans SC5314; Candida albicans, minimum effective concentration, read-out: MIC read as MEC): 0.25 µg/mL (≈ 0.229 µM)
Brain tissue fungal burden, Mean log CFUs ± the standard deviation (Candida albicans SC5314): 1.22 ± 1.87 log CFUs
Kidney tissue fungal burden, Mean log CFUs ± the standard deviation (Candida albicans SC5314): 3.22 ± 1.26 log CFUs

C[C@@H]1[C@H](O)[C@@H](C)/C=C/C=C/C=C/C=C/C=C/C=C/C=C/[C@H](O[C@@H]2O[C@H](C)[C@@H](O)[C@H](N)[C@@H]2O)C[C@@H]2O[C@](O)(C[C@@H](O)C[C@@H](O)[C@H](O)CC[C@@H](O)C[C@@H](O)CC(=O)O[C@H]1C)C[C@H](O)[C@H]2C(=O)O [Amphotericin B]
MIC50 ([10]; M19 medium): 0.34 µg/mL (≈ 0.368 µM)
MIC50 ([10]; Müller-Hinton medium): 0.04 µg/mL (≈ 0.0433 µM)
MIC Range (C. glabrata strains [1]): 0.125-1
MIC50 (C. glabrata strains [1]): 0.5 µg/mL (≈ 0.541 µM)
MIC90 (C. glabrata strains [1]): 0.5 µg/mL (≈ 0.541 µM)
MFC Range (C. glabrata strains [2]; C. glabrata strains, in µg/mL): 0.5-1
MFC50 (C. glabrata strains [2]): 0.5 µg/mL (≈ 0.541 µM)
MFC90 (C. glabrata strains [2]): 1 µg/mL (≈ 1.08 µM)
MFC Range (C. krusei strains; C. krusei strains, in µg/mL): 1
MFC50 (C. krusei strains): 1 µg/mL (≈ 1.08 µM)
MFC90 (C. krusei strains): 1 µg/mL (≈ 1.08 µM)
MIC Range (C. tropicalis): 0.25-0.5
MIC50 (C. tropicalis): 0.25 µg/mL (≈ 0.271 µM)
MIC90 (C. tropicalis): 0.5 µg/mL (≈ 0.541 µM)
MIC Range (all Candida strains [3]): 0.125-1
MIC50 (all Candida strains [3]): 0.5 µg/mL (≈ 0.541 µM)
MIC90 (all Candida strains [3]): 0.5 µg/mL (≈ 0.541 µM)
MFC Range (all Candida strains [4]; in µg/mL): 0.125-2
MFC50 (all Candida strains [4]): 0.5 µg/mL (≈ 0.541 µM)
MFC90 (all Candida strains [4]): 1 µg/mL (≈ 1.08 µM)
MIC Range (Cr. neoformans strains): 0.06-1
MIC50 (Cr. neoformans strains): 0.25 µg/mL (≈ 0.271 µM)
MIC90 (Cr. neoformans strains): 0.5 µg/mL (≈ 0.541 µM)
MFC50 [5]: > 8 µg/mL
MFC90 [5]: > 8 µg/mL
MIC Range [6]: 0.25-2
MIC50 [6]: 1 µg/mL (≈ 1.08 µM)
MIC90 [6]: 1 µg/mL (≈ 1.08 µM)
MFC50 [7]: 2 µg/mL (≈ 2.16 µM)
MFC90 [7]: > 8 µg/mL
MIC Range (Fusarium strains): 0.5-2
MIC50 (Fusarium strains): 1 µg/mL (≈ 1.08 µM)
MIC90 (Fusarium strains): 2 µg/mL (≈ 2.16 µM)
MFC50 [8]: 1 µg/mL (≈ 1.08 µM)
MFC90 [8]: 8 µg/mL (≈ 8.66 µM)
MFC Range (Paecilomyces strains): > 4 µg/mL
MIC Range [9]: <0.03-0.125
MIC (C. albicans SC5314): 0.125 µg/mL (≈ 0.135 µM)

— patent US20230138395A1, “PHARMACEUTICAL COMPOSITIONS OF A THERAPEUTIC POLYENE MACROLIDE AND METHODS OF THEIR USE” (priority 2020, published 2023)
